The source of these data is patent US5985910A, “3- [4- (2- Phenyl-Indole-1-ylmethyl) Phenyl]- Acrylamides as estrogenic agents” (priority 1997, dated 1999).

Molecules are shown by their SMILES.

One data set deals with Ishikawa cells. Put plainly: Ishikawa Cell Alkaline Phosphatase Assay. The format is cell-based, human. The note with it: for % Activation (Compound ± 1 nM 17β-estradiol) (alkaline phosphatase): 10^-6 M compound + 1 nM 17β-estradiol, 48 h (antiestrogen test); for % Activation (alkaline phosphatase): compound alone, 48 h, percent of response related to 1 nM 17β-estradiol. Here is the method: Ishikawa Cell Alkaline Phosphatase Assay
(§1) Cell Maintenance and Treatment
Ishikawa cells were maintained in DMEM/F12 (50%:50%) containing phenol red+10% fetal bovine serum and the medium was supplemented with 2 mM Glutamax, 1% Pen/Strap and 1 mM sodium pyruvate. Five days prior to the beginning of each experiment (treatment of cells) the medium was changed to phenol red-free DMEM/F12+10% dextran coated charcoal stripped serum. On the day before treatment, cells were harvested using 0.5% trypsin/EDTA and plated at a density of 5×10^4 cells/well in 96-well tissue culture plates. […] Cells were treated for 48 h prior to assay. […] Sample population for at each dose was n=8.
Alkaline Phosphatase Assay
At the end of 48 h the media is aspirated and cells are washed three times with phosphate buffered saline (PBS). 50 μL of lysis buffer (0.1 M Tris-HCl, pH 9.8, 0.2% Triton X-100) is added to each well. Plates are placed at -80° C. for a minimum of 15 minutes. Plates are thawed at 37° C. followed by the addition of 150 μL of 0.1 M Tris-HCl, pH 9.8, containing 4 mM para-nitrophenylphosphate (pNPP) to each well (final concentration, 3 mM pNPP).
Absorbance and slope calculations were made using the KineticCalc Application program (Bio-Tek Instruments, Inc., Winooski, Vt.). Results are expressed as the mean +/-S.D. of the rate of enzyme reaction (slope) averaged over the linear portion of the kinetic reaction curve (optical density readings every 5 minutes for 30 minutes absorbance reading).
Various compounds were assayed for estrogenic activity by the alkaline phosphatase method and corresponding ED50 values (95% C.I.) were calculated. The four listed in the following were used as reference standards:
A description of such methods is provided by Holinka, C. F., Hata, H., Kuramoto, H. and Gurpide, E. (1986) Effects of steroid hormones and antisteroids on alkaline phosphatase activity in human endometrial cancer cells (Ishikawa Line). Cancer Research, 46:2771-2774, and by Littlefield, B. A., Gurpide, E., Markiewicz, L., McKinley, B. and by Hochberg, R. B. (1990) A simple and sensitive microtiter plate estrogen bioassay based on stimulation alkaline phosphatase in Ishikawa cells; Estrogen action of D5 adrenal steroids. Endocrinology, 6:2757-2762.

A further data set deals with bone. The note with it: background; cited from earlier work.
Another data set deals with uterus. The note with it: background; cited from earlier work.
A further data set relates to uteri. Put plainly: Rat Uterotrophic/Antiuterotrophic Bioassay (results headed 3-Day Ovariectomized Rat Model). The class given is in vivo, rat (Sprague-Dawley). How it is done:
Rat Uterotrophic/Antiuterotrophic Bioassay
Immature Sprague-Dawley rats (female, 18 days old) were tested in groups of six. […] On day 4 the animals were sacrificed by CO2 asphyxiation and their uteri were removed and stripped of excess lipid, any fluid removed and the wet weight determined. A small section of one horn was submitted for histology and the remainder used to isolate total RNA in order to evaluate complement component 3 gene expression.

The subject of another data set is ovariectomized rat. Conditions: background, cited from earlier work.
In data set [1] the target is T1, estrogen receptor (Homo sapiens, UniProt P03372).
T1 sequence (P03372 1-595): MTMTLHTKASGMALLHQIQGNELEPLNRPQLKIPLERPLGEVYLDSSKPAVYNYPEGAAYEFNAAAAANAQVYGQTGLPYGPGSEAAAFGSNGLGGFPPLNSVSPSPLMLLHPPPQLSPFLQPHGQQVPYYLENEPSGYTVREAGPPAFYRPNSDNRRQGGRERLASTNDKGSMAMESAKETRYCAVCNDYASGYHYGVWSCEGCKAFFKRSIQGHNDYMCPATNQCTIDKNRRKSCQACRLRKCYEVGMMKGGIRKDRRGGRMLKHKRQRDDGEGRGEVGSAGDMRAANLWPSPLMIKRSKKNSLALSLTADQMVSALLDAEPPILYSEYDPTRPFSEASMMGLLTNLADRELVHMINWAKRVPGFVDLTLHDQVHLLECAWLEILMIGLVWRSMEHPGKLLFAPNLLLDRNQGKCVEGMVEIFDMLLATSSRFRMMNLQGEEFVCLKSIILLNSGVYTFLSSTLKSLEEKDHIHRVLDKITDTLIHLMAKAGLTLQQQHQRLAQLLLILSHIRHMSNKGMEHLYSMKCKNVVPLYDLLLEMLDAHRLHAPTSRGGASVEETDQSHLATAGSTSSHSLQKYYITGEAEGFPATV
Nature of the data set: In Vitro Estrogen Receptor Binding Assay ([3H]-17β-estradiol competition, cytosol of CHO cells overexpressing the estrogen receptor). The arrangement: made in house; host or cells: CHO cells overexpressing the receptor; 100,000 g cytosol. Here is the method: In Vitro Estrogen Receptor Bonding Assay
CHO cells overexpressing the estrogen receptor were grown in 150 mm^2 dishes in DMEM+10% dextran coated charcoal, stripped fetal bovine serum. The plates were washed twice with PBS and once with 10 mM Tris-HCl, pH 7.4, 1 mM EDTA. Cells were harvested by scraping the surface and then the cell suspension was placed on ice. Cells were disrupted with a hand-held motorized tissue grinder using two, 10-second bursts. […] The cytosol was then frozen and stored at -80° C. Protein concentration of the cytosol was estimated using the BCA assay with reference standard protein.
100 uG/100 uL of the receptor preparation was aliquoted per well. […] The plate was incubated at room temperature for 2.5 h. […] 200 uL of the supernatant solution was then removed for scintillation counting. Samples were counted to 2% or 10 minutes, whichever occurs first. […] Also, wells containing radioactivity but no cytosol were processed with charcoal to estimate unremovable DPM of [^3 H] […].
Counts per minute (CPM) of radioactivity were automatically converted to disintegrated per minute (DPM) by the Beckman LS 7500 Scintillation Counter using a set of quenched standards to generate a H# for each sample.
((DPM sample-DPM not removed by charcoal)/(DPM estradiol-DPM not removed by charcoal))×100%=% of estradiol binding
For the generation of IC50 curves, % binding is plotted vs compound. […] For a description of these methods, see Hulme, E. C., ed. […] Receptor-Ligand Interactions: A Practical Approach. IRL Press, New York (see especially chapter 8).

The target in data set [2] is T1, estrogen receptor. Nature of the data set: 2X VIT ERE Transfection (luciferase) Assay in CHO cells. The class given is cell-based. More on the design: expressed in transfected cells; host or cells: Chinese Hamster Ovary (CHO) cells, stably transfected. How it is done: 2X VIT ERE Transfection Assay
as §1
Chinese Hamster Ovary cells (CHO) which had been stably transfected with the human estrogen receptor were maintained in DMEM+10% fetal bovine serum (FBS). 48 h prior to treatment the growth medium was replaced with DMEM lacking phenol red +10% dextran coated charcoal stripped FBS (treatment medium). Cells were plated at a density of 5000 cells/well in 96-well plates containing 200 μL of medium/well.
Calcium Phoshate Transfection
Reporter DNA (Promega plasmid pGL2 containing two tandem copies of the vitellogenin ERE in front of the minimal thymidine kinase promoter driving the luciferase gene) was combined with the B-galactosidase expression plasmid pCH110 (Pharmacia) and carrier DNA (pTZ18U) in the following ratio:
20 uL of this mixture was added to each well of cells and remained on the cells for 16 h. […] Each treatment condition was performed on 8 wells (n=8) which were incubated for 24 h prior to the luciferase assay.
After removing the PBS, 25 uL of Promega lysis buffer was added to each well and allowed to stand at room temperature for 15 min, followed by 15 min at -80° C. and 15 min at 37° C. 20 uL of lysate was transferred to an opaque 96 well plate for luciferase activity evaluation and the remaining lysate (5 uL) was used for the B-galactosidase activity evaluation (normalize transfection). The luciferan substrate (Promega) was added in 100 uL aliquots to each well automatically by the luminometer and the light produced (relative light units) was read 10 seconds after addition.
To the remaining 5 uL of lysate 45 uL of PBS was added. Then 50 uL of Promega B-galactosidase 2× assay buffer was added, mixed well and incubated at 37° C. for 1 hour. A plate containing a standard curve (0.1 to 1.5 milliunits in triplicate) was set up for each experimental run. The plates were analyzed on a Molecular Devices spectrophotometric plate reader at 410 nm. The optical densities for the unknown were converted to milliunits of activity by mathematical extrapolation from the standard curve.
The luciferase data was generated as relative light units (RLUs) accumulated during a 10 second measurement and automatically transferred to a JMP (SAS Inc) file where background RLUs were subtracted. The B-galactosidase values were automatically imported into the file and these values were divided into the RLUs to normalize the data. The mean and standard deviations were determined from a n=8 for each treatment. […] These techniques are described by Tzukerman, M. T., Esty, A., Santiso-Mere, D., Danielian, P., Parker, M. G., Stein, R. B., Pike, J. W. and McDonnel, D. P. (1994). Human estrogen receptor transactivational capacity was determined by both cellular and promoter context and mediated by two functionally distinct intramolecular regions (see Molecular Endocrinology, 8:21-30).

Consider `CC/C(=C(\c1ccccc1)c1ccc(OCCN(C)C)cc1)c1ccccc1` [tamoxifen], for which, in the data set with Ishikawa cells, the “% Activation (Compound ± 1 nM 17β-estradiol) (alkaline phosphatase)” value is reported as 45% and the “% Activation (alkaline phosphatase)” value amounted to 0%. Also, the “effect on the bone in humans (in words)” value in the data set with bone is “estrogen agonist like effect on the bone”. For the same molecule, in the data set with uterus, the “effect in the uterus (in words)” value is recorded as “partial agonist in the uterus”. Besides, the “uterine wet weight, 10 μG” value in the data set on uteri (10 μG compound, controls: tamoxifen/raloxifene 42.7, Example 7 20.2, Example 12 31.4, Example 11 24.5, Examples 14/15 29.1 mg) is given as 69.6 mg. Moreover, in the data set with uteri (100 μG compound, controls: tamoxifen/raloxifene 42.7, Example 7 20.2, Example 12 31.4, Example 11 24.5, Examples 14/15 29.1 mg), the “uterine wet weight, 100 μG” value came to 71.4 mg.

Regarding `O=C(c1ccc(OCCN2CCCCC2)cc1)c1c(-c2ccc(O)cc2)sc2cc(O)ccc12` [raloxifene], the “% Activation (alkaline phosphatase)” value in the data set on Ishikawa cells amounted to 5%. For the same molecule, the “ability to spare bone (in words)” value in the data set on ovariectomized rat is recorded as “maintaining the ability to spare bone”. Besides, the “stimulation of uterine growth (in words)” value in the data set on ovariectomized rat (compared with Tamoxifen) is reported as “stimulate uterine growth in the ovariectomized rat to a lesser extent than Tamoxifen”.

With `CCCCN(CCCC)C(=O)/C=C/c1ccc(Cn2c(-c3ccc(O)cc3)c(C)c3cc(O)ccc32)cc1` [Example 11, (E)-N,N-Dibutyl-3-{4-[5-hydroxy-2-(4-hydroxy-phenyl)-3-methyl-indol-1-ylmethyl]-phenyl}-acrylamide], in the data set with Ishikawa cells, the “% Activation (Compound ± 1 nM 17β-estradiol) (alkaline phosphatase)” value was 11% and the “% Activation (alkaline phosphatase)” value turned out to be 6%. Besides, the “Estrogen Receptor Affinity (RBA)” value on estrogen receptor [1] was 80. In addition, the “% Activation with 1 nM 17β-estradiol (luciferase)” value at estrogen receptor [2] (1 uM compound + 1 nM 17β-estradiol, 24 h (antagonism)) is on record as 12%. In addition, the activation at 1 µM on estrogen receptor [2] (CHO, 24 h) was 8%. In addition, the “uterine wet weight, 100 μG plus 1 μG 17β-Estradiol” value in the data set with uteri (100 μG compound + 1 μG 17β-estradiol, estradiol alone: Example 11 group 90.8, Examples 14/15 group 95.5 mg) is listed as 81.0 mg.
